# From paper PMC4371799 (Clinical Epigenetics, 2015)
# Several values for one entry are separate records, joined by “and”; a condition that tells them apart may be missing. Identical values can stand only once. Like-named read-outs stand apart in the source and are kept apart here.
# Key:
# [1] = Azacitidine plasma pharmacokinetics, non-compartmental analysis; format: in vivo, patients; conditions: for AUC / Cmax / half-life / AUC(0-inf): human, plasma, intravenous
# Text: Compartmental and non-compartmental modeling were used to derive pharmacokinetic parameters, including Cmax (maximum concentration), AUC (area under the curve), t1/2 (half-life of elimination), Vd (volume of distribution), and CL (clearance).
# [2] = tested on: platinum-resistant ovarian cancer cells; conditions: cited from earlier work
# [3] = azacitidine/oxaliplatin 20/15 mg/m^2, C1D1, n = 3, mean (SD)
# [4] = azacitidine/oxaliplatin 20/15 mg/m^2, C1D5, n = 3, mean (SD)
# [5] = azacitidine/oxaliplatin 20/22.5 mg/m^2, C1D1, n = 3, mean (SD)
# [6] = azacitidine/oxaliplatin 20/22.5 mg/m^2, C1D5, n = 3, mean (SD)
# [7] = azacitidine/oxaliplatin 20/30 mg/m^2, C1D1, n = 3, mean (SD)
# [8] = azacitidine/oxaliplatin 20/30 mg/m^2, C1D5, n = 3, mean (SD)
# [9] = azacitidine/oxaliplatin 25/30 mg/m^2, C1D1, n = 3, mean (SD)
# [10] = azacitidine/oxaliplatin 25/30 mg/m^2, C1D5, n = 3, mean (SD)
# [11] = azacitidine/oxaliplatin 40/30 mg/m^2, C1D1, n = 3, mean (SD)
# [12] = azacitidine/oxaliplatin 40/30 mg/m^2, C1D5, n = 3, mean (SD)
# [13] = azacitidine/oxaliplatin 50/30 mg/m^2, C1D1, n = 22, mean (SD)
# [14] = azacitidine/oxaliplatin 50/30 mg/m^2, C1D5, n = 22, mean (SD)
smiles,measurement,setting,value
Nc1ncn([C@@H]2O[C@H](CO)[C@@H](O)[C@H]2O)c(=O)n1 [azacitidine],dose-dependent interaction on mean systemic exposure (plasma AUCall),"[1]; azacitidine D1 and 5, with oxaliplatin",increasing the dose of oxaliplatin reduced the mean azacitidine exposure
same,CL,[1]; [3],167.1 (170.5) l/h/m^2
same,V d,[1]; [3],92.3 (58.9) l/m^2
same,CL,[1]; [4],136.7 (97.0) l/h/m^2
same,V d,[1]; [4],61.1 (35.4) l/m^2
same,CL,[1]; [5],62.7 (53.9) l/h/m^2
same,V d,[1]; [5],78.6 (54.4) l/m^2
same,CL,[1]; [6],62.9 (25.4) l/h/m^2
same,V d,[1]; [6],85.4 (69.0) l/m^2
same,CL,[1]; [7],239.3 (139.2) l/h/m^2
same,V d,[1]; [7],226.5 (253.4) l/m^2
same,CL,[1]; [8],146.1 (40.0) l/h/m^2
same,V d,[1]; [8],71.6 (19.0) l/m^2
same,CL,[1]; [9],168.6 (126.7) l/h/m^2
same,V d,[1]; [9],70.3 (35.7) l/m^2
same,CL,[1]; [10],150.0 (74.6) l/h/m^2
same,V d,[1]; [10],132.2 (62.5) l/m^2
same,CL,[1]; [11],616.6 (525.5) l/h/m^2
same,V d,[1]; [11],105.8 (37.0) l/m^2
same,CL,[1]; [12],253.0 (165.5) l/h/m^2
same,V d,[1]; [12],95.6 (57.3) l/m^2
same,AUCinf,[1]; [13],412.1 (195.7) h-ng/ml
same,C max,[1]; [13],581.1 (284.8) ng/ml
same,CL,[1]; [13],178 l/h/m^2 and 177.7 (155.9) l/h/m^2
same,V d,[1]; [13],121 l/m^2 and 120.6 (112.0) l/m^2
same,AUCinf,[1]; [14],431.5 (261.7) h-ng/ml
same,C max,[1]; [14],637.7 (428.6) ng/ml
same,CL,[1]; [14],156 l/h/m^2 and 156.2 (80.7) l/h/m^2
same,V d,[1]; [14],94 l/m^2 and 94.0 (50.7) l/m^2
same,AUC,[1]; [3],216 ng·h/mL
same,Cmax,[1]; [3],327 ng/mL
same,half-life,[1]; [3],32.4 min
same,AUC(0-inf),"[1]; azacitidine/oxaliplatin 20/15 mg/m^2, C1D1, n = 3, mean (SD), read-out: AUCinf",221 ng·h/mL
same,AUC,[1]; [4],193 ng·h/mL
same,Cmax,[1]; [4],334 ng/mL
same,half-life,[1]; [4],21 min
same,AUC(0-inf),"[1]; azacitidine/oxaliplatin 20/15 mg/m^2, C1D5, n = 3, mean (SD), read-out: AUCinf",196 ng·h/mL
same,AUC,[1]; [5],428 ng·h/mL
same,Cmax,[1]; [5],427 ng/mL
same,half-life,[1]; [5],653 min
same,AUC(0-inf),"[1]; azacitidine/oxaliplatin 20/22.5 mg/m^2, C1D1, n = 3, mean (SD), read-out: AUCinf",2330 ng·h/mL
same,AUC(0-inf),"[1]; azacitidine/oxaliplatin 20/22.5 mg/m^2, C1D1, n = 3, median (footnote a), read-out: AUCinf, median",259 ng·h/mL
same,AUC,[1]; [6],317 ng·h/mL
same,Cmax,[1]; [6],452 ng/mL
same,half-life,[1]; [6],76.2 min
same,AUC(0-inf),"[1]; azacitidine/oxaliplatin 20/22.5 mg/m^2, C1D5, n = 3, mean (SD), read-out: AUCinf",357 ng·h/mL
same,AUC,[1]; [7],112 ng·h/mL
same,Cmax,[1]; [7],206 ng/mL
same,half-life,[1]; [7],32.4 min
same,AUC(0-inf),"[1]; azacitidine/oxaliplatin 20/30 mg/m^2, C1D1, n = 3, mean (SD), read-out: AUCinf",125 ng·h/mL
same,AUC,[1]; [8],144 ng·h/mL
same,Cmax,[1]; [8],214 ng/mL
same,half-life,[1]; [8],20.4 min
same,AUC(0-inf),"[1]; azacitidine/oxaliplatin 20/30 mg/m^2, C1D5, n = 3, mean (SD), read-out: AUCinf",146 ng·h/mL
same,AUC,[1]; [9],210 ng·h/mL
same,Cmax,[1]; [9],252 ng/mL
same,half-life,[1]; [9],19.8 min
same,AUC(0-inf),"[1]; azacitidine/oxaliplatin 25/30 mg/m^2, C1D1, n = 3, mean (SD), read-out: AUCinf",216 ng·h/mL
same,AUC,[1]; [10],208 ng·h/mL
same,Cmax,[1]; [10],273 ng/mL
same,half-life,[1]; [10],43.2 min
same,AUC(0-inf),"[1]; azacitidine/oxaliplatin 25/30 mg/m^2, C1D5, n = 3, mean (SD), read-out: AUCinf",214 ng·h/mL
same,AUC,[1]; [11],97.5 ng·h/mL
same,Cmax,[1]; [11],190 ng/mL
same,half-life,[1]; [11],9.6 min
same,AUC(0-inf),"[1]; azacitidine/oxaliplatin 40/30 mg/m^2, C1D1, n = 3, mean (SD), read-out: AUCinf",100 ng·h/mL
same,AUC,[1]; [12],206 ng·h/mL
same,Cmax,[1]; [12],289 ng/mL
same,half-life,[1]; [12],16.2 min
same,AUC(0-inf),"[1]; azacitidine/oxaliplatin 40/30 mg/m^2, C1D5, n = 3, mean (SD), read-out: AUCinf",212 ng·h/mL
same,AUC,[1]; [13],404 ng·h/mL
same,Cmax,[1]; [13],581 ng/mL
same,half-life,[1]; [13],40.2 min
same,AUC(0-inf),"[1]; azacitidine/oxaliplatin 50/30 mg/m^2, C1D1, n = 22, mean (SD), read-out: AUCinf",412 ng·h/mL
same,AUC,[1]; [14],426 ng·h/mL
same,Cmax,[1]; [14],638 ng/mL
same,half-life,[1]; [14],25.2 min
same,AUC(0-inf),"[1]; azacitidine/oxaliplatin 50/30 mg/m^2, C1D5, n = 22, mean (SD), read-out: AUCinf",432 ng·h/mL
same,effect on sensitivity to carboplatin,[2],enhance the sensitivity of platinum-resistant ovarian cancer cells to carboplatin
